Measured values reported in US6455550B1, “N-alkanoylphenylalanine derivatives” (Hoffmann-La Roche Inc., priority 1997, dated 2002).

Target: T1, VLA-4 (α4β1 integrin) binding to immobilized VCAM-1 (Homo sapiens, UniProt P05556+P13612)
T1 construct: followed by 10 μl of Ramos cell-derived VLA-4; endogenous in cells; host or cells: Ramos cells (VLA-4 preparation derived from the cells)
Assay: VLA-4/VCAM-1 Screening Assay (solid-phase, dual antibody ELISA)
Conditions: not given
Protocol: VLA-4 antagonist activity, defined as ability to compete for binding to immobilized VCAM-1 was quantitated using a solid-phase, dual antibody ELISA. VLA-4 (α4β1 integrin) bound to VCAM-1 was detected by a complex of anti-integrin β1 antibody: HRP-conjugated anti-mouse IgG: chromogenic substrate (K-Blue). Initially, this entailed coating 96 well plates (Nunc Maxisorp) with recombinant human VCAM-1 (0.4 μg in 100 μl PBS), sealing each plate and then allowing the plates to stand at 4° C for Å18 hr. […] On the day of assay, all plates were washed twice with VCAM Assay Buffer (200 μl/well of 50 mM Tris-HCl, 100 mM NaCl, 1 mM MnCl2, 0.05% Tween 20; pH 7.4). Test compounds were dissolved in 100% DMSO and then diluted 1:20 in VCAM Assay Buffer supplemented with 1 mg/mL BSA (i.e., final DMSO=5%). […] 100 μl per well of each dilution was added to the VCAM-coated plates, followed by 10 μl of Ramos cell-derived VLA-4. These plates were sequentially mixed on a platform shaker for 1 min, incubated for 2 hr at 37° C. and then washed four times with 200 μl/well VCAM Assay Buffer. 100 μl of mouse anti-human integrin β1 antibody was added to each well (0.6 μg/mL in VCAM Assay Buffer+1 mg/mL BSA) and allowed to incubate for 1 hr at 37° C. At the conclusion of this incubation period, all plates were washed four times with VCAM Assay Buffer (200 μl/well). A corresponding second antibody, HRP-conjugated goat anti-mouse IgG (100 μl per well @1:800 dilution in VCAM Assay Buffer+1 mg/mL BSA), was then added to each well, followed by a 1 hr incubation at room temperature and concluded by three washes (200 μl/well) with VCAM Assay Buffer. Color development was initiated by addition of 100 μl K-Blue per well (15 min incubation, room temp) and terminated by addition of 100 μl Red Stop Buffer per well. […] Results were calculated as % inhibition of total binding (i.e., VLA-4+VCAM-1 in the absence of test compound).

T1 sequence (P13612 34-1032): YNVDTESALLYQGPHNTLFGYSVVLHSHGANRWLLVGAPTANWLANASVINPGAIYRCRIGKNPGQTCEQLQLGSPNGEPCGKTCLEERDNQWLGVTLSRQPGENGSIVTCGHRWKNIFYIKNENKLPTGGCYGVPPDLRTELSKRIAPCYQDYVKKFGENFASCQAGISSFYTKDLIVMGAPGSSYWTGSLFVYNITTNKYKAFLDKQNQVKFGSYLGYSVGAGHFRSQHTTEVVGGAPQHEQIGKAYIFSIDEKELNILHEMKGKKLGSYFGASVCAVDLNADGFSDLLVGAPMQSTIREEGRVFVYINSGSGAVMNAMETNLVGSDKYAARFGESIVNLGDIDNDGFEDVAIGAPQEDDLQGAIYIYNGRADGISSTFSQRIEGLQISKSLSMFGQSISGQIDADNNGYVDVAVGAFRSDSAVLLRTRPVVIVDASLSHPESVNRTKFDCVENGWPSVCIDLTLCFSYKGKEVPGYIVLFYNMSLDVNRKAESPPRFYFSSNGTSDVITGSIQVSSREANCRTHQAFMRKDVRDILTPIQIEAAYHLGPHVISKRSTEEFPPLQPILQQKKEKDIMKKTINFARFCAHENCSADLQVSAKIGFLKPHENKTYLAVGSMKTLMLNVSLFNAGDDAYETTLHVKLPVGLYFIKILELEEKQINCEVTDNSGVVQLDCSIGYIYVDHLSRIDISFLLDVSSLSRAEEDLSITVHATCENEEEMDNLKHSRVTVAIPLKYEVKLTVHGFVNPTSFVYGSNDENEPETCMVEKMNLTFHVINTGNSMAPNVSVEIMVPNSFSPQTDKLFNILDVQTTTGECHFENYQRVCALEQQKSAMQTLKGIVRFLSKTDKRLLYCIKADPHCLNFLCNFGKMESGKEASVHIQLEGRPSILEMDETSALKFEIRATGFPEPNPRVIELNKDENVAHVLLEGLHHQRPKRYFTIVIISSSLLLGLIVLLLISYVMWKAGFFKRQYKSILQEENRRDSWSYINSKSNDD
T1 sequence (P05556 21-798): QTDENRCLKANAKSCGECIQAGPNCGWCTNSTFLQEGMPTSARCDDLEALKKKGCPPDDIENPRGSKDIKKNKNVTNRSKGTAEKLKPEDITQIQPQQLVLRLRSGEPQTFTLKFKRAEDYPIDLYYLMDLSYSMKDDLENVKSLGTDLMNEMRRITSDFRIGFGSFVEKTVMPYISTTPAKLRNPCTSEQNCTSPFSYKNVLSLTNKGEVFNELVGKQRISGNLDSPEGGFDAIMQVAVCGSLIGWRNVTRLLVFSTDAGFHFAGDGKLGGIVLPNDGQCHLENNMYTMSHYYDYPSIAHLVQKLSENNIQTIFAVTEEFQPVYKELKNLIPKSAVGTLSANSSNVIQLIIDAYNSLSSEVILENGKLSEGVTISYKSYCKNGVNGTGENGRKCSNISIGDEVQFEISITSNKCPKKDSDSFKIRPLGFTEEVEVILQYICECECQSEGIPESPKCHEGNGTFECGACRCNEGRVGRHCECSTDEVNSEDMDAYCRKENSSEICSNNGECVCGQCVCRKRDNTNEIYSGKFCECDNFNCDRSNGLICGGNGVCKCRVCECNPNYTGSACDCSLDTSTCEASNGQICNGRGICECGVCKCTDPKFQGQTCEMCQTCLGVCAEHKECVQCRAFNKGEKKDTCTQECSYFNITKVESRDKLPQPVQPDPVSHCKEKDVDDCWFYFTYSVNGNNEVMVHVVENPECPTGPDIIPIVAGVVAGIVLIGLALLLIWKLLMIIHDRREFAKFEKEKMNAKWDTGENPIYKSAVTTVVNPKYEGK

inhibition at 0.01 µM | inhibition at 0.1 µM | Compound
49% | 87% | CCC(C(=O)N[C@@H](Cc1ccc(NC(=O)c2ccnc3ccccc23)cc1)C(=O)O)c1ccccc1 (some centres unmarked) [Example 69]
72% | 92% | O=C(Nc1ccc(C[C@H](NC(=O)C23CC4CC(CC(C4)C2)C3)C(=O)O)cc1)c1ccnc2ccccc12 [Example 65]

Same assay, conditions: Ramos cell-derived VLA-4, recombinant human VCAM-1 coated plates, 2 hr at 37° C.; read-out: IC50

Compound | IC50
CC(=O)N[C@@H](Cc1ccc(O)cc1)C(=O)Nc1ccc(C[C@H](NC(=O)C2(C)CC2(Cl)Cl)C(=O)O)cc1 (some centres unmarked) [Example 101] | 18.3 nM
COc1ccc(C2(C(=O)N[C@@H](Cc3ccc(NC(=O)c4ccc(F)cc4C(F)(F)F)cc3)C(=O)O)CCCCC2)cc1 [Example 104] | 10.4 nM
COc1ccc(CC2(C(=O)N[C@@H](Cc3ccc(NC(=O)c4ccc(F)cc4C(F)(F)F)cc3)C(=O)O)CCCC2)cc1 [Example 96] | 17.4 nM
CCCCC(C)(CC)C(=O)N[C@@H](Cc1ccc(NC(=O)c2ccc(F)cc2C(F)(F)F)cc1)C(=O)O (some centres unmarked) [Example 89] | 81 nM
COc1ccc(C2(C(=O)NC(Cc3ccc(NC(=O)C(Cc4ccc(O)cc4)NC(C)=O)cc3)C(=O)O)CCCCC2)cc1 (centres unmarked) [Example 106] | 13.5 nM
CCCCC(CC)C(=O)NCCC1(C(=O)N[C@@H](Cc2ccc(NC(=O)c3c(Cl)cccc3Cl)cc2)C(=O)O)CCCC1 (some centres unmarked) [Example 161] | 9.4 nM
4-[[(4-Cyano-4-phenyl-1-piperidinyl)carbonyl]amino]-L-phenylalanine on Wang Resin [Example 116] | 0.88 nM
O=C(NCCC1(C(=O)N[C@@H](Cc2ccc(NC(=O)c3c(Cl)cccc3Cl)cc2)C(=O)O)CCCC1)c1ccc2c(c1)OCO2 [Example 165] | 11 nM
Cc1ccc([N+](=O)[O-])cc1C(=O)Nc1ccc(C[C@H](NC(=O)C2(Cc3ccccc3)CCCC2)C(=O)O)cc1 [Example 36, 4-[[(2-Methyl-5-nitrophenyl)carbonyl]amino]-N-[[1-(phenylmethyl)cyclopentyl]carbonyl]-L-phenylalanine] | 4.6 nM

Further compounds by falling IC50, results first:

IC50 | Compound
6.6 nM | COCCC1(C(=O)NC(Cc2ccc(N3C(=O)C(CC(C)C)N(C(C)=O)C3c3ccc(OC)cc3)cc2)C(=O)O)CCCC1 (single isomer, unassigned) [Example 130]
5.8 nM | CCC(C(=O)N[C@@H](Cc1ccc(NC(=O)c2ccnc3ccccc23)cc1)C(=O)O)c1ccccc1 (some centres unmarked) [Example 69]
5 nM | O=C(Nc1ccc(C[C@H](NC(=O)C2(Cc3ccccc3)CCCC2)C(=O)O)cc1)c1c(Cl)cccc1Cl [Example 37, 4-[[(2,6-Dichlorophenyl)carbonyl]amino]-N-[[1-(phenylmethyl)cyclopentyl]carbonyl]-L-phenylalanine]
4.7 nM | CC1(C)C2CCC1(C(=O)NC(Cc1ccc(NC(=O)c3c(Cl)cccc3Cl)cc1)C(=O)O)C(=O)C2 (centres unmarked) [Example 49]
2.8 nM | COCCC1(C(=O)NC(Cc2ccc(N3C(=O)C(CC(C)C)N(C(C)=O)C3c3ccc(Cl)cc3)cc2)C(=O)O)CCCC1 (single isomer, unassigned) [Example 132]
2.4 nM | O=C(Nc1ccc(C[C@H](NC(=O)C23CC4CC(CC(C4)C2)C3)C(=O)O)cc1)c1ccnc2ccccc12 [Example 65]
2.1 nM | CC1(C(=O)N[C@@H](Cc2ccc(NC(=O)CCN3CCCCC3)cc2)C(=O)O)CC1(Cl)Cl (some centres unmarked) [Example 99]
1.7 nM | COc1ccc(C2(C(=O)N[C@@H](Cc3ccc(N4C(=O)CSC4c4ccc5ccccc5c4)cc3)C(=O)O)CCCCC2)cc1 (stereo partly drawn) [Example 142, N-[[1-(4-methoxyphenyl)cyclohexyl]carbonyl]-4-[2-(2-naphthyl)-4-oxo-3-thiazolidinyl]-L-phenylalanine]
1.05 nM | COCC1(C(=O)NC(Cc2ccc(NC(=O)c3c(Cl)cccc3Cl)cc2)C(=O)O)CCCC1 (centres unmarked) [Example 60]
1.04 nM | CCCCC(C)(CC)C(=O)N[C@@H](Cc1ccc(NC(=O)c2cc([N+](=O)[O-])ccc2C)cc1)C(=O)O (some centres unmarked) [Example 90]
0.83 nM | COc1ccc(C2(C(=O)N[C@@H](Cc3ccc(NC(=O)c4cc([N+](=O)[O-])ccc4C)cc3)C(=O)O)CCCCC2)cc1 [Example 105]
0.7 nM | COc1ccc(C2(C(=O)NC(Cc3ccc(NC(=O)c4c(Cl)cccc4Cl)cc3)C(=O)O)CCCCC2)cc1 (centres unmarked) [Example 103]
0.44 nM | Cn1nnnc1-c1cccc(CC2(C(=O)N[C@@H](Cc3ccc(NC(=O)c4c(Cl)cccc4Cl)cc3)C(=O)O)CCCC2)c1 [Example 48]
